Measurements as given in publication PMC12563536, “A Novel Allosteric Inhibitor Targeting IMPDH at Y233 Overcomes Resistance to Tyrosine Kinase Inhibitors in Lymphoma” (Cancers, 2025).

Tests used:
Format in all cases: biochemical
recombinant human IMPDH2 [1] = target: T1, recombinant human IMPDH2 (Homo sapiens, UniProt P12268); assay: IMPDH activity assay kit, microplate, […] min preincubation; details: dose-dependent, 50-200 µM tested
T1 construct: commercial recombinant protein (R&D Systems); 514 residues full length; tetramer/octamer
T1 sequence (P12268 2-514): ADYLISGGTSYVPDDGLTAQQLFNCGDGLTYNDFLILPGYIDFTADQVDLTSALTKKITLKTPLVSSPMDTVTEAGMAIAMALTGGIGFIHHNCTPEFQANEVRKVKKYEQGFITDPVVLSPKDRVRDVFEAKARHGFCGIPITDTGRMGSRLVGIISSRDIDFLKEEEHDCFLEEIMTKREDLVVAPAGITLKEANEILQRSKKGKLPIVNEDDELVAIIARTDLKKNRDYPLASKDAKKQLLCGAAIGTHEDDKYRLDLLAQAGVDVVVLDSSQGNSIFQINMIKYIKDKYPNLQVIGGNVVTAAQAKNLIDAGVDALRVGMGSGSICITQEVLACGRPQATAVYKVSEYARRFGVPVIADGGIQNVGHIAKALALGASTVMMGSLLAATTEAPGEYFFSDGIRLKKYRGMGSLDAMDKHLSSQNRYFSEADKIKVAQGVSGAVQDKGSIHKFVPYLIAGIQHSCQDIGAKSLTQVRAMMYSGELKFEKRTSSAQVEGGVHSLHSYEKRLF

recombinant human IMPDH2 [2] = target: T1, recombinant human IMPDH2; assay: IMPDH activity assay, 96-well screen; details: read-out: % inhibition at 10 μM
recombinant human IMPDH2 [3] = target: T1, recombinant human IMPDH2; assay: IMPDH activity assay kit, microplate; details: targeted to allosteric GTP-binding site of the CBS domain (site from docking)

Row | inhibition at 10 µM (recombinant human IMPDH2 [2]) [%] | SMILES | also measured
1 | – | CCCCCCCC(=O)OC[C@H](COP(=O)(O)O[C@@H]1[C@H](O)[C@H](OP(=O)(O)O)[C@@H](O)[C@H](O)[C@H]1O)OC(=O)CCCCCCC [PI(3)P diC8] | % inhibition at 200 μM (recombinant human IMPDH2 [1]): > 50%
2 | > 32 | CN(C)c1ccc(C=c2sc3nc(=O)c(-c4ccccc4NC(=O)C(F)(F)F)nn3c2=O)cc1 [compound 5, comp-5] | –
3 | – | O=C1C=CC(=O)c2c(O)c(N3CCN(CCOCCO)CC3)c(Br)c(O)c21 [compound 10, Comp-10] | IC50 (recombinant human IMPDH2 [3]): ~260 nM
4 | > 52 | O=C1c2ccccc2C(=O)C1C(c1ccc([N+](=O)[O-])cc1)C1C(=O)c2ccccc2C1=O [compound 12, comp-12] | –
